From patent US5378846A, “1,2,3,4-tetrahydropyrrolo-[1,2-a]-pyrazine derivatives” (Russian-American Institute For New Drug Development, priority 1993, dated 1995)
Values joined by “and” are separate entries in the source; they are usually repeats but may differ in a detail not shown here. Equal values may be shown once.

Tests used:
[1] = tested on: rat behavior in Vogel conflict test; experiment: Vogel conflict test (anxiolytic activity, punished responses in water-deprived rats); format: in vivo, outbred male albino rats; settings: rat
Description: Compounds according to the present invention were checked for their anxiolytic activity. Behaviour suppressed by punishment is a very reliable indicator of the anxiolytic activity of drugs. A variant of the conflict situation test was used to reveal anxiety in water-deprived rats whose licking was suppressed by shock (see Vogel et al., Phychopharmacologia, 21, 1-7 (1971); J. E. Barrett in Animal Models in Psychopharmacology, Advances in Pharmacological Sciences, 1991; and Birkhauser Verlag, Basel, p. 37.52, Molodavkin et al., Exper. Clin. Pharmacol., 56, (1993), which are incorporated herein by reference).
The experiments were carried out using outbred male albino rats (180-220 g). This experiment involved previous training of water-deprived rats to drink water from a trough. Next day electrical stimulation was given delivering 0.5 mA electric shocks through the trough and metal grid floor of the experimental chamber. A conflict situation was created by clashing motivations (survival and self defense). The degree of anxiolytic activity was estimated by the measurement of the amount of punished licks for 10 min. Each compound was administered intraperitoneally 45 min. before the conflict test.

[2] = tested on: locomotor activity in mice; experiment: Locomotor activity in mice (actometer); format: in vivo, outbred male mice; settings: i.p.
Procedure: (§1) Compounds according to the present invention were checked for their influence on gross behaviour. The experiments described herein (Examples 11, 12, 13, 14, and 15) were carried out using outbred male mice weighing approximately 18-24 g. Each substance was administered intraperitoneally 45 min. before the experiment. Locomotor activity was estimated individually for each animal for 3 min. using an actometer `Era-1` (Russia).

[3] = tested on: duration of immobility in mice; experiment: Behavioural despair test (forced swimming); format: in vivo, outbred male mice; settings: for Influence on duration of immobility, in words: forced swimming; for The duration of immobility: i.p.
Procedure: as §1
The influence of compounds on behavioral despair was studied according to the model described by Porsolt et al., Arch. int. pharmacodyn.et ther., 228, 327-[…] (1977), which is incorporated herein by reference. Mice, when forced to swim in a cylinder of water without the possibility of escape, rapidly adopt a characteristic immobile posture. […] The only movements they make are those necessary to keep their heads above water.

Acute toxicity in mice = settings: mouse, in vivo, ip, mice, i.p., lethality 24 hours later, Table 6 (range in brackets beside); read-out: LD50
Procedure: as §1
The compounds of the present invention were checked for acute toxicity in outbred male mice (18-22 g.). They were administered intraperitoneally and the lethality was estimated 24 hours later (Table 6). In the dose range of 500-1000 mg/kg i.p. Compound 1 caused death in 50% of the animals. Compound 1 is almost 5 times less toxic than other compounds.

[4] = tested on: aggressive behavior in mice; experiment: Antiaggressive activity (threshold of aggressive behavior, electrified floor); format: in vivo, outbred male mice
Procedure: as §1
The effect of Compound 1 on the threshold of the aggressive behavior was determined in the experiment on outbred mice (R. Tedesci et al., J. Pharmacol. Exp. Ther., 125, 28-34, (1959), which is incorporated herein by reference). The paired mice were placed on the electrified floor. The strength of the current, which provoked the fighting, was recorded.

memory formation in rats = experiment: Passive avoidance test, step-through (memory formation, retention); format: in vivo, outbred male albino rats; settings: rat, 5.0 mg/kg i.p., retention 24 hours later, 3 min
Procedure: The influence of Compound 1 on memory formation was studied in a passive avoidance test, step-through paradigm (equipment of Laffaette Co., USA). The experiments were carried out on outbred male albino rats ([…]). Compound 1 and other drugs were administered intraperitoneally 45 min. before the passive avoidance training. The retention was tested 24 hours later learning (painful electroshock in the dark compartment) by the measurement of the time spent in the dark compartment for 3 min.

[5] = Rotating rod test (coordination of movements and myorelaxation); settings: mouse, in vivo
Procedure: (§2) The influence of Compound 1 on the motor behavior was studied according to a "rotating rod" test and a "horizontal wire" test in outbred male mice (18-22 g). A rotating rod (2 cm diameter and 5 rpm speed) was used. Acquisition was defined as the ability to remain on the rotating rod for 2 min. Each animal had two trials. According to the "horizontal wire" test a mouse was hung on the wire (0.3 cm. diameter, wire was fixed horizontally 40 cm above the floor) by the forepaws. The ability to pull the hind legs up to the wire for 2 min. was a criterion of test performance.

motor behavior in mice [6] = experiment: as above; settings: mice
Procedure: as §2

[7] = Horizontal wire test (coordination of movements and myorelaxation); settings: mouse, in vivo
Procedure: as §2

motor behavior in mice [8] = experiment: as above; settings: mice
Procedure: as §2

[9] = 2.0 mg/kg i.p., 45 min before test, Table 1

Compound | The number of punished responses [1, 9] | Influence on locomotor activity, in words [2] | The number of movements for 3 min., horizontal activity ([2]; 10.0 mg/kg) | The number of movements for 3 min., vertical activity ([2]; 10.0 mg/kg) | The number of movements for 3 min., horizontal activity ([2]; 20.0 mg/kg) | The number of movements for 3 min., vertical activity ([2]; 20.0 mg/kg) | Influence on duration of immobility, in words [3] | The duration of immobility ([3]; 10.0 mg/kg) | The duration of immobility ([3]; 20.0 mg/kg) [s] | LD50 at 24 h (Acute toxicity in mice) [mg/kg] | further results
CC(=O)N1CCn2c(CN3CCCCC3)ccc2C1 [Compound 3, 2-Acetyl-6-(Piperidinomethyl)-1,2,3,4-Tetrahydropyrrolo-[1,2-]-Pyrazine] | 22.00 ± 4.86 | decrease locomotor activity | 532.5 ± 42.1 | 8.1 ± 1.9 | 442.7 ± 30.3 | 9.2 ± 4.4 | increased the duration of immobility | 209.3 ± 6.5 s | 254.6 ± 10.9 | 414 | 
CN1CCN=C(c2ccccc2)c2cc(Cl)ccc21 [Medazepam, reference compound] |  |  |  |  |  |  |  |  |  |  | Aggression threshold ([4]; 5.0 mg/kg i.p.): 32.2 ± 5.25 V; Aggression threshold ([4]; 10.0 mg/kg i.p.): 43.1 ± 4.2 V; The time spent in dark compartment (memory formation in rats): 142.6 ± 19.58 s; The time spent in light compartment (memory formation in rats): 37.4 ± 19.5 s; TD50 [5]: 5.2 mg/kg; Disturbances according to rotating rod test, effect in % (motor behavior in mice [6]; dose 2.5): 40%; Disturbances according to rotating rod test, effect in % (motor behavior in mice [6]; dose 5.0): 50%; Disturbances according to rotating rod test, effect in % (motor behavior in mice [6]; dose 10.0): 96%; TD50 [7]: 7.5 mg/kg; Disturbances according to horizontal wire test, effect in % (motor behavior in mice [8]; dose 2.5): 33%; Disturbances according to horizontal wire test, effect in % (motor behavior in mice [8]; dose 5.0): 50%; Disturbances according to horizontal wire test, effect in % (motor behavior in mice [8]; dose 10.0): 75%
CC(=O)N1CCn2c(CN3CCOCC3)ccc2C1 [Compound 4, 2-Acetyl-6-(Morpholinomethyl)-1,2,3,4-Tetrahydropyrrolo-[1,2-a]-Pyrazine] | 9.25 ± 1.75 |  | 479.6 ± 22.8 | 17.6 ± 6.9 | 564.5 ± 22.5 | 24.7 ± 5.6 | did not show any activity | 197.3 ± 5.9 s | 202.7 ± 6.7 | 105 | 
CC(=O)N1CCn2c(CN(C)C)ccc2C1 [Compound 2, hydrooxalate of 2-acetyl-6-(dimethylaminomethyl)-1,2,3,4-tetrahydropyrrolo-[1,2-a]-pyrazine] | 63.00 ± 35.38 | decrease locomotor activity | 524.4 ± 36.9 | 10.0 ± 2.1 | 489.1 ± 9.7 | 22.4 ± 3.0 | increased the duration of immobility | 203.4 ± 14.1 s | 234.9 ± 12.6 | 340 | 
O=C(O)C(=O)O.O=C(c1ccccc1)N1CCn2c(CN3CCCCC3)ccc2C1 [Compound 6, 2-Benzoyl-6-(Piperidinomethyl)-1,2,3,4-Tetrahydropyrrolo-[1,2-a]-Pyrazine Hydrooxalate] | 30.75 ± 13.17 |  | 693.0 ± 25.3 | 16.5 ± 6.2 | 644.0 ± 30.4 | 19.9 ± 3.4 | reduced the duration of immobility | 201.7 ± 13.1 s |  | 389 | The duration of immobility ([3]; 1.0 mg/kg): 184.3 ± 11.7 s
CN(C)Cc1ccc2n1CCN(C(=O)c1ccccc1)C2 [Compound 5, 2-Benzoyl-6-(Dimethylaminomethyl)-1,2,3,4-Tetrahydropyrrolo-[1,2-]-Pyrazine] | 85.25 ± 32.04 |  | 676.1 ± 34.5 | 36.1 ± 5.8 | 659.7 ± 32.7 | 36.6 ± 8.6 | reduced the duration of immobility | 189.4 ± 10.3 s and 218.3 ± 12.1 s | 216.4 ± 14.2 | 77 | 
CN1C(=O)CN=C(c2ccccc2)c2cc(Cl)ccc21 [Diazepam, reference compound] |  |  |  |  |  |  |  |  |  |  | The number of punished responses ([1]; i.p., dose 1.0 mg/kg, Table 2): 22.25 ± 10.89; The number of punished responses ([1]; i.p., dose 2.0 mg/kg, Table 2): 47.25 ± 22.49; Aggression threshold ([4]; 1.0 mg/kg i.p.): 45.4 ± 9.5 V; Aggression threshold ([4]; 5.0 mg/kg i.p.): 92.4 ± 15.6 V; The time spent in dark compartment (memory formation in rats): 127.7 ± 21.1 s; The time spent in light compartment (memory formation in rats): 52.3 ± 11.3 s; Disturbances according to horizontal wire test, effect in % (motor behavior in mice [8]; dose 1.0): 20%; Disturbances according to horizontal wire test, effect in % (motor behavior in mice [8]; dose 2.0): 40%; Disturbances according to horizontal wire test, effect in % (motor behavior in mice [8]; dose 5.0): 80%
O=C(O)C(=O)O.O=C(c1ccccc1)N1CCn2c(CN3CCOCC3)ccc2C1 [Compound 7, 2-Benzoyl-6-(Morpholinomethyl)-1,2,3,4-Tetrahydropyrrolo-[1,2-a]-Pyrazine Hydrooxalate] | 25.00 ± 5.99 | decrease locomotor activity | 475.1 ± 11.2 | 13.7 ± 2.5 | 474.0 ± 14.7 | 12.4 ± 3.8 | did not show any activity | 169.3 ± 11.8 s | 147.8 ± 7.1 | 115 | 
